Results reported in patent US9353132B2, “Boron-based 4-hydroxytamoxifen and endoxifen prodrugs as treatment for breast cancer” (XAVIER UNIVERSITY OF LOUISIANA, priority 2012, dated 2016).

What was measured:
MCF-7 cells [1] = test: Cell survival/growth inhibition assay in ER+ MCF-7 breast cancer cells; assay type: cell-based, human; conditions: for inhibition at 1 µM / inhibition at 0.1 µM: MCF7
Text: MCF-7 is a human breast adenocarcinoma cell line commonly accepted in the art as useful for in vitro breast cancer studies because it has retained several ideal characteristics particular to mammary epithelium. These characteristics include the ability to process estrogen (in the form of estradiol) via estrogen receptors in the cell cytoplasm. This makes the MCF-7 cell line an estrogen receptor (ER) positive control cell line.
To test if the prodrugs inhibit breast cancer cell growth and proliferation, cell survival assays were conducted.

T47D cells [2] = test: Cell survival/growth inhibition assay in ER+ T47D breast cancer cells; assay type: cell-based; conditions: for inhibition at 1 µM / inhibition at 0.1 µM: T47D; for IC50: dose-response, T47D cells
Text: The T47D cell line is also an ER positive control cell line.
To test if the prodrugs can inhibit growth in another breast cancer cell line that also expresses the estrogen receptor, T47D cells were used.

MCF-7 cells [3] = test: Oxidative conversion of prodrug to 4-OHT in media after incubation with MCF-7 cells (HPLC-MS/MS); assay type: in vitro ADME, human; conditions: LC-MS/MS
Protocol: (§1) To determine if the actions of the prodrugs are by means of biotransformation into the compound 4-hydroxytamoxifen, we analyzed the concentrations of the prodrugs and 4-hydroxytamoxifen in the media containing breast cancer cells using an HPLC-MS/MS technique.
(§2) Using HPLC coupled to a linear trap mass spectrometer, the prodrugs and their active product, 4-OHT were separated, identified, and quantified.
(§3) The relative peak areas were measured at 30.4% for prodrug 3 and 69.6% for 4-OHT (FIG. 5 panel A).

T47D cells [4] = test: Oxidative conversion of prodrug to 4-OHT in media after incubation with T47D cells (HPLC-MS/MS); assay type: in vitro ADME; conditions: LC-MS/MS
Protocol: as §1, §2, §3

[5] = Kinetic stability of prodrug (conversion to 4-OHT) in MCF-7 cell culture; assay type: in vitro ADME, human; conditions: human, MCF-7 cell culture; 0 to 144 hours, regression of prodrug concentration relative to 4-OHT
Protocol: (§4) A kinetic study on the stability of the prodrugs was performed. In the study, the relative concentration of a prodrug to 4-OHT was determined at different time points that ranged from 0 hour to 144 hours (6 days).

MCF-7 cell culture = test: as above; assay type: in vitro ADME, human; conditions: 0 to 144 hours, regression of prodrug concentration relative to 4-OHT
Protocol: as §4

[6] = test system: estrogen-dependent cell proliferation; conditions: cited from earlier work
[7] = Homo sapiens, MCF7, dose-response, MCF-7 cells

Row | half-life [5] | Compound | IC50 (MCF-7 cells [1]; [7]) | inhibition at 1 µM (MCF-7 cells [1]; Homo sapiens, 10^−6 M) | inhibition at 0.1 µM (MCF-7 cells [1]; Homo sapiens, 10^−7 M) | inhibition at 1 µM (T47D cells [2]; Homo sapiens, 10^−6 M) | inhibition at 0.1 µM (T47D cells [2]; Homo sapiens, 10^−7 M) | IC50 (T47D cells [2]; Homo sapiens) | growth inhibition of T47D cells (T47D cells [2]; 10^−6 M) | other results
1 | 96 h | CCC(=C(c1ccc(OCCN(C)C)cc1)c1ccc(B(O)O)cc1)c1ccccc1 [Prodrug 3, (4-(1-(4-(2-(Dimethylamino)ethoxy)phenyl)-2-phenylbut-1-en-1-yl)phenyl)boronic acid] | 0.042 µM | 75% | 51% | 54% | 44% | 0.228 µM | – | relative peak area of remaining prodrug (MCF-7 cells [3]): 30.4%; % peak area of remaining prodrug (T47D cells [4]): 20.9%
2 | – | CCC(=C(c1ccc(OCCN(C)C)cc1)c1ccc([B-](F)(F)F)cc1)c1ccccc1.[K+] [Prodrug 2, Potassium (4-(1-(4-(2-(dimethylamino)ethoxy)phenyl)-2-phenylbut-1-en-1-yl)phenyl)trifluoro boronate] | – | – | – | – | – | – | 50% | growth inhibition of MCF-7 cells (MCF-7 cells [1]; 10^−6 M): 76%; growth inhibition of MCF-7 cells (MCF-7 cells [1]; 10^−7 M): 59%; IC50 (MCF-7 cells [1]; dose-response, MCF-7 cells): 0.0063 µM; IC50 (MCF-7 cells [1]; dose-response, MCF-7 cells, listed as Boron-4-OHT Prodrug (2)): 0.00626 µM; growth inhibition of T47D cells (T47D cells [2]; 10^−7 M): 38%; IC50 (T47D cells [2]): 0.26 µM; % peak area of 4-OHT formed from prodrug (MCF-7 cells [3]): 81.6%; % peak area of 4-OHT formed from prodrug (transformed into 4-OHT) (T47D cells [4]): 86.3%; half-life of prodrug (conversion to 4-OHT) (MCF-7 cell culture): 84 h
3 | 89 h | CCC(=C(c1ccc(OCCN(C)C)cc1)c1ccc(B2OC(C)(C)C(C)(C)O2)cc1)c1ccccc1 [Prodrug 1, N,N-Dimethyl-2-(4-(2-phenyl-1-(4-(4,4,5,5-tetramethyl-1,3,2-dioxaborolan-2-yl)phenyl)but-1-en-1-yl)phenoxy)ethanamine] | 0.15 µM | 63% | 52% | 60% | 42% | 0.144 µM | – | IC50 relative to tamoxifen (MCF-7 cells [1]; cell line not given, values match MCF-7): about 5 times lower; IC50 (MCF-7 cells [1]; dose-response, MCF-7 cells, listed as Boron-4-OHT Prodrug (1)): 0.148 µM
4 | – | 4-hydroxytamoxifen [Prodrug 4-OHT] | – | – | – | – | – | – | – | potency relative to tamoxifen in inhibiting estrogen-dependent cell proliferation [6]: 30- to 100 fold
5 | – | CC/C(=C(\c1ccccc1)c1ccc(OCCN(C)C)cc1)c1ccccc1 [Tamoxifen] | – | 52% | 18% | 46% | 39% | – | 48% | –
6 | – | CCC(=C(c1ccc(OCCNC)cc1)c1ccc(B(O)O)cc1)c1ccccc1 [Prodrug 11, (4-(1-(4-(2-(Methylamino)ethoxy)phenyl)-2-phenylbut-1-en-1-yl)phenyl)boronic acid] | 0.0255 µM | – | – | 53% | 40% | 0.189 µM | – | anti-proliferative efficacy compared to tamoxifen (MCF-7 cells [1]; MCF-7 cells): greater anti-proliferative efficacy than tamoxifen
